# Data published in patent publication US12338262B2 (Forward Therapeutics, Inc., priority 2022, dated 2025).
# Target: TNF-α (Homo sapiens, UniProt P01375)
# Test: TNF-α Induced HEK Blue Cellular Assay
# Assay type: cell-based
# Conditions: HEK Blue TNFα reporter cells, TNF-α 100 pg/ml, 24 hrs at 37° C., secreted alkaline phosphatase (QUANTI-Blue, 620 nm)
# Description: TNF-α Induced HEK Bluet Cellular Assay
# Test articles were diluted in DMSO and serially diluted into 384 well assay plate (Corning 3765), at final concentrations ranging from […] to 0.5 nM. HEK Blue™ TNFα reporter cells were added at a final density of 10,000 cell per well in assay media [DMEM (Gibco, cat #21063-029), 10% fetal bovine serum (ExcelBio, cat #FND500), 1% Penicillin-Streptomycin (Solarbio, cat #P1400-100]. TNF-α (R&D 210-TA-020/CF) was then added to the assay plate at a final concentration of 100 pg/ml. This plate was then incubated for 24 hrs at 37° C. and 5% CO2. Secreted alkaline phosphatase expression was then measured using QUANTI-Blue™ (Invivogen), according to manufacturer instructions and read on an Envision microplate reader at 620 nm.
# Inhibition data for test compound over a range of concentration was plotted as percentage inhibition of the test compound (100%=maximum inhibition). IC50 values were determined after correcting for background [(sample read-mean of low control)/(mean of high control-mean of low control)] where by the low control is DMSO without stimulation and high control is DMSO with stimulation. The IC50 is defined as the concentration of test compound which produces 50% inhibition and was quantified using the 4 parameter logistic equation to fit the data.
# Chain of TNF-α (P01375 77-233 limits assumed): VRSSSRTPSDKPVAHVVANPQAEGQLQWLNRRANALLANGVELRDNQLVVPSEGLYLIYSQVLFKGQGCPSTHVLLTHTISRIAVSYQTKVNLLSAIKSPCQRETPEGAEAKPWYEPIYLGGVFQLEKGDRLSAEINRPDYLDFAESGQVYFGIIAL
row,IC50 [nM],Structure (SMILES)
1,≤ 1000,"Cc1nc2cc(F)c(-c3ccc(P(C)(C)=O)nc3)nc2c(N[C@H](C)c2ccc(F)c(F)c2)c1Cl [Example 80, 3-chloro-N-[(1R)-1-(3,4-difluorophenyl)ethyl]-6-[6-(dimethylphosphoryl)pyridin-3-yl]-7-fluoro-2-methyl-1,5-naphthyridin-4-amine]"
2,10000 to 30000,"Cc1nc2cc(F)c(-c3ccc(P(C)(C)=O)nc3)nc2c(N[C@H](C)c2c(F)ccc(F)c2F)c1Cl [Example 89, 3-chloro-6-[6-(dimethylphosphoryl)pyridin-3-yl]-7-fluoro-2-methyl-N-[(1R)-1-(2,3,6-trifluorophenyl)ethyl]-1,5-naphthyridin-4-amine]"
3,≤ 100,"Cc1nc2cc(F)c(-c3cnc(P4(=O)CCCC4)nc3)nc2c(N[C@H](C)c2cc(C#N)ccc2F)c1Cl [Example 49, 3-[(1R)-1-({3-chloro-7-fluoro-2-methyl-6-[2-(1-oxo-1lambda5-phospholan-1-yl)pyrimidin-5-yl]-1,5-naphthyridin-4-yl}amino)ethyl]-4-fluorobenzonitrile]"
4,≤ 1000,"CC[C@@H](Nc1c(F)c(C)nc2cc(F)c(-c3ccc(P(C)(C)=O)nc3)nc12)c1ccccc1F [Example 77, 6-[6-(dimethylphosphoryl)pyridin-3-yl]-3,7-difluoro-N-[(1R)-1-(2-fluorophenyl)propyl]-2-methyl-1,5-naphthyridin-4-amine]"
5,≤ 1000,"Cc1nc2cc(F)c(-c3ccc(P(C)(C)=O)nc3)nc2c(N[C@H](C)c2nc(C#N)ccc2F)c1Cl [Example 123, 6-[(1R)-1-({3-chloro-6-[6-(dimethylphosphoryl)pyridin-3-yl]-7-fluoro-2-methyl-1,5-naphthyridin-4-yl}amino)ethyl]-5-fluoropyridine-2-carbonitrile]"
6,≤ 100,"Cc1nc2cc(F)c(N3CCC(P(C)(C)=O)CC3)nc2c(N[C@H](C)c2cc(C#N)ccc2F)c1Cl [Example 31, 3-[(1R)-1-({3-chloro-6-[4-(dimethylphosphoryl)piperidin-1-yl]-7-fluoro-2-methyl-1,5-naphthyridin-4-yl}amino)ethyl]-4-fluorobenzonitrile]"
7,≤ 100,"CC[C@@H](Nc1c(Cl)c(C)nc2cc(F)c(-c3cnc(P(C)(C)=O)nc3)cc12)c1cccc(F)c1F [Example 114, (R)-(5-(3-chloro-4-((1-(2,3-difluorophenyl)propyl)amino)-7-fluoro-2-methylquinolin-6-yl)pyrimidin-2-yl)dimethylphosphine oxide]"
8,≤ 1000,"Cc1nc2cc(F)c(-c3ccc(P(C)(C)=O)nc3)nc2c(N[C@H](c2ccccc2)C2CC2)c1Cl [Example 140, 3-chloro-N—[(S)-cyclopropyl(phenyl)methyl]-6-[6-(dimethylphosphoryl)pyridin-3-yl]-7-fluoro-2-methyl-1,5-naphthyridin-4-amine]"
9,≤ 1000,"Cc1nc2cc(F)c(-c3ccc(P(C)(C)=O)c(F)c3)nc2c(N[C@H](C)c2cccc(Cl)c2F)c1Cl [Example 118, 3-chloro-N-[(1R)-1-(3-chloro-2-fluorophenyl)ethyl]-6-[4-(dimethylphosphoryl)-3-fluorophenyl]-7-fluoro-2-methyl-1,5-naphthyridin-4-amine]"
10,≤ 1000,"Cc1nc2cc(F)c(-c3cnc(P(C)(C)=O)nc3)nc2c(N[C@@H](c2ccccc2F)C(F)(F)F)c1Cl [Example 71, 3-chloro-6-[2-(dimethylphosphoryl)pyrimidin-5-yl]-7-fluoro-2-methyl-N-[(1S)-2,2,2-trifluoro-1-(2-fluorophenyl)ethyl]-1,5-naphthyridin-4-amine]"
11,≤ 100,"CCC(Nc1c(Cl)c(C)nc2cc(F)c(-c3ccc(P(C)(C)=O)nc3)nc12)c1cccnc1 (stereo not drawn) [Example 82, 3-chloro-6-[6-(dimethylphosphoryl)pyridin-3-yl]-7-fluoro-2-methyl-N-[1-(pyridin-3-yl)propyl]-1,5-naphthyridin-4-amine]"
12,10000 to 30000,"Cc1nc2cc(F)c(-c3cnc(P(C)(C)=O)c(F)c3)cc2c(N[C@H](C)c2cc(F)cc(F)c2)c1Cl [Example 129, 3-chloro-N-[(1R)-1-(3,5-difluorophenyl)ethyl]-6-[6-(dimethylphosphoryl)-5-fluoropyridin-3-yl]-7-fluoro-2-methylquinolin-4-amine]"
13,≤ 100,"CCP(=O)(CC)c1ncc(-c2nc3c(N[C@H](C)c4cc(C#N)ccc4F)c(Cl)c(C)nc3cc2F)cn1 [Example 28, 3-[(1R)-1-({3-chloro-6-[2-(diethylphosphoryl)pyrimidin-5-yl]-7-fluoro-2-methyl-1,5-naphthyridin-4-yl}amino)ethyl]-4-fluorobenzonitrile]"
14,≤ 1000,"C[C@@H](Nc1c(Cl)cnc2cc(F)c(-c3cnc(P(C)(C)=O)nc3)cc12)c1cc(C#N)ccc1F [Example 12, 3-[(1R)-1-({3-chloro-6-[2-(dimethylphosphoryl)pyrimidin-5-yl]-7-fluoroquinolin-4-yl}amino)ethyl]-4-fluorobenzonitrile]"
15,≤ 100,"Cc1nc2cc(F)c(-c3ccc(P(C)(C)=O)nc3)nc2c(N[C@@H](C)c2cccc(F)c2F)c1Cl [Example 45, 3-chloro-N-[(1S)-1-(2,3-difluorophenyl)ethyl]-6-[6-(dimethylphosphoryl)pyridin-3-yl]-7-fluoro-2-methyl-1,5-naphthyridin-4-amine]"
16,≤ 100,"Cc1nc2cc(F)c(-c3ccc(P(C)(C)=O)nc3)nc2c(N[C@H](C)c2ccccc2)c1Cl [Example 90, 3-chloro-6-[6-(dimethylphosphoryl)pyridin-3-yl]-7-fluoro-2-methyl-N-[(1R)-1-phenylethyl]-1,5-naphthyridin-4-amine]"
17,≤ 1000,"Cc1nc2cc(F)c(-c3ccc(OCP(C)(C)=O)nc3)cc2c(N[C@H](C)c2ccccc2F)c1Cl [Example 105, 3-chloro-6-{6-[(dimethylphosphoryl)methoxy]pyridin-3-yl}-7-fluoro-N-[(1R)-1-(2-fluorophenyl)ethyl]-2-methylquinolin-4-amine]"
18,≤ 1000,"CC[C@@H](Nc1c(Cl)c(C)nc2cc(F)c(-c3ccc(P(C)(C)=O)c(F)c3)nc12)c1ccccc1F [Example 24, 3-chloro-6-[4-(dimethylphosphoryl)-3-fluorophenyl]-7-fluoro-N-[(1R)-1-(2-fluorophenyl)propyl]-2-methyl-1,5-naphthyridin-4-amine]"
19,≤ 1000,"CC[C@H](Nc1c(Cl)c(C)nc2cc(F)c(-c3cnc(P(C)(C)=O)nc3)nc12)c1cccc(F)c1F [Example 127, 3-chloro-N-[(1S)-1-(2,3-difluorophenyl)propyl]-6-[2-(dimethylphosphoryl)pyrimidin-5-yl]-7-fluoro-2-methyl-1,5-naphthyridin-4-amine]"
20,10000 to 30000,"CCC(Nc1c(Cl)c(C)nc2cc(F)c(-c3ccc(P(C)(C)=O)nc3)nc12)c1ccn(C)n1 (stereo not drawn) [Example 149, 3-chloro-6-[6-(dimethylphosphoryl)pyridin-3-yl]-7-fluoro-2-methyl-N-[1-(1-methylpyrazol-3-yl)propyl]-1,5-naphthyridin-4-amine]"
21,≤ 100,"CC[C@H](Nc1c(Cl)c(C)nc2cc(F)c(-c3cnc(OCP(C)(C)=O)nc3)nc12)c1cccc(F)c1F [Example 126, 3-chloro-N-[(1S)-1-(2,3-difluorophenyl)propyl]-6-{2-[(dimethylphosphoryl)methoxy]pyrimidin-5-yl}-7-fluoro-2-methyl-1,5-naphthyridin-4-amine]"
22,≤ 100,"Cc1nc2cc(F)c(-c3ccc(P(C)(C)=O)nc3)nc2c(NC2(c3ccccn3)CC2)c1Cl [Example 111, 3-chloro-6-[6-(dimethylphosphoryl)pyridin-3-yl]-7-fluoro-2-methyl-N-[1-(pyridin-2-yl)cyclopropyl]-1,5-naphthyridin-4-amine]"
23,≤ 100,"Cc1nc2cc(F)c(-c3ccc(P(C)(C)=O)nc3)nc2c(N[C@H](C)c2cccc(F)c2)c1Cl [Example 86, 3-chloro-6-[6-(dimethylphosphoryl)pyridin-3-yl]-7-fluoro-N-[(1R)-1-(3-fluorophenyl)ethyl]-2-methyl-1,5-naphthyridin-4-amine]"
24,≤ 1000,"Cc1nc2cc(F)c(-c3ccc(CP(C)(C)=O)nc3)nc2c(N[C@H](C)c2cc(C#N)ccc2F)c1Cl [Example 39, (R)-3-(1-((3-chloro-6-(6-((dimethylphosphoryl)methyl)pyridin-3-yl)-7-fluoro-2-methyl-1,5-naphthyridin-4-yl)amino)ethyl)-4-fluorobenzonitrile]"
25,≤ 100,"Cc1nc2cc(F)c(-c3ccc(P(C)(C)=O)nc3)nc2c(N[C@H](C)c2cccc(Cl)c2)c1Cl [Example 91, 3-chloro-N-[(1R)-1-(3-chlorophenyl)ethyl]-6-[6-(dimethylphosphoryl)pyridin-3-yl]-7-fluoro-2-methyl-1,5-naphthyridin-4-amine]"
26,≤ 100,"Cc1nc2cc(F)c(-c3ccc(P(C)(C)=O)nc3)nc2c(N[C@H](C)c2cccnc2)c1Cl [Example 75, 3-chloro-6-[6-(dimethylphosphoryl)pyridin-3-yl]-7-fluoro-2-methyl-N-[(1R)-1-(pyridin-3-yl)ethyl]-1,5-naphthyridin-4-amine]"
27,≤ 1000,"CC[C@@H](Nc1c(Cl)c(C)nc2cc(F)c(-c3cnc(OCP(C)(C)=O)nc3)nc12)c1cccc(F)c1F [Example 125, 3-chloro-N-[(1R)-1-(2,3-difluorophenyl)propyl]-6-{2-[(dimethylphosphoryl)methoxy]pyrimidin-5-yl}-7-fluoro-2-methyl-1,5-naphthyridin-4-amine]"
